Consider nine molecules from patent US20240425523A1, “Compounds for the Degradation of EGFR Kinase” (Beigene Switzerland GMBH, priority 2023, published 2024).

pIC50: −log10 of the molar value. A value given as a limit tells only on which side of the number the result lay.

Holding throughout (type): cell-based
Experiment [1] deals with T1, p-EGFR L858R (BaF3-L858R cells) (Homo sapiens, UniProt P00533, L858R).
T1 construct: host or cells: BaF3
As to the kind of experiment: Cell p-EGFR inhibition assay, HTRF, BaF3-L858R cells. The note with it: 16 h treatment; for Imax (%): maximum percentage of pEGFR inhibition; for pIC50: pEGFR inhibition. The procedure, abridged: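 BaF3-L858R cells treated 16 h at 37 °C, 5% CO2 with compound from 10 uM top, 5-fold dilutions, 8 doses, in 0.1% DMSO medium. Lysates read overnight by HTRF p-EGFR antibodies; IC50 fitted to four-parameter curve against DMSO high control.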

The target in experiment [2] is T2, EGFR L858R (BaF3-L858R cells) (Homo sapiens, UniProt P00533, L858R).
T2 construct: host or cells: BaF3
As to the kind of experiment: Cell degradation of EGFR, HTRF assay, BaF3-L858R cells. The note with it: 16 h treatment; for DC50: EGFR degradation; for Dmax: maximum percentage of degradation. In short, it runs like this:
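EGFR L858R levels measured by HTRF antibody pair in lysed BaF3-L858R cells after 16 h compound exposure (8-point 5-fold series from 10 uM final, 37° C). Degradation is relative to DMSO-only cells; DC50 fitted with Hill equation, Dmax taken as the largest percent loss.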

For experiment [3], the target named is T3, EGFR-L858R/C797S (H1975-clone #8 cells) (Homo sapiens, UniProt P00533, C797S/L858R).
T3 construct: expressed in transfected cells; host or cells: H1975 (endogenous EGFR knocked out, clone #8)
As to the kind of experiment: Cell degradation of EGFR, HTRF assay, H1975-clone#8 (L858R/C797S) cells. The note with it: 16 h treatment; for DC50: EGFR degradation; for Dmax: maximum percentage of degradation.

Experiment [4] addresses p-EGFR Del19/C797S (H1975-clone #23 cells) (Homo sapiens, UniProt P00533). As to the kind of experiment: Cell p-EGFR inhibition assay, HTRF, H1975-clone#23 (DEL19/C797S) cells. The note with it: 16 h treatment; for Imax (%): maximum percentage of pEGFR inhibition; for pIC50: pEGFR inhibition. In short, it runs like this: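 Phospho-EGFR read by overnight HTRF on lysates, normalized to DMSO-treated high control; IC50, Hill slope and Imax fitted. Compounds were applied for 16 h (10 uM top, 5-fold steps, 8 doses) to an H1975 single clone carrying only exogenous Del19/C797S EGFR after sgRNA knockout of endogenous copies.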

For the molecule `Cc1cc2cc(n1)-c1cnn(C)c1OC[C@H]1CCC(C1)CN1/C(=N/C2=O)Nc2ccc(N3CCN(C4CCN(c5cc(F)c([C@H]6CCC(=O)NC6=O)c(F)c5)CC4)[C@@H](CO)C3)cc21` [Example 75, (R)-3-(4-(4-((R)-4-((7^1R,7^3S,E)-1^1,2^6-dimethyl-3-oxo-5^2,5^3-dihydro-1^1H,5^1H-9-oxa-4-aza-5(2,1)-benzo[d]imidazola-2(2,4)-pyridina-1(4,5)-pyrazola-7(1,3)-cyclopentanacyclononaphane-5^6-yl)-2-(hydroxymethyl)piperazin-1-yl)piperidin-1-yl)-2,6-difluorophenyl)piperidine-2,6-dione], the entries for the “Imax (%)” value in experiment [1] and in experiment [4] were 92.6% and 101.1%, respectively. Also, the pIC50 is 8.10 in experiment [1] and 9.22 in experiment [4]. In addition, the DC50 came to 1.6 nM in experiment [2] and 0.97 nM in experiment [3]. Also, the Dmax in experiment [2] amounted to 82.7%; in experiment [3], 61.3%.

On to `COC[C@H]1CN(c2ccc3c(c2)N2C[C@@H]4CC[C@H](COc5c(c(C)nn5C)-c5cc(cc(C)n5)C(=O)/N=C/2N3)C4)CCN1C1CCN(c2ccc(OC3CCC(=O)NC3=O)cc2C)CC1` (stereo partly drawn) [Example 140, 3-(4-(4-((R)-2-(methoxymethyl)-4-((7^1R,7^3S,E)-1^1,1^3,2^6-trimethyl-3-oxo-5^2,5^3-dihydro-1^1H,5^1H-9-oxa-4-aza-5(2,1)-benzo[d]imidazola-2(2,4)-pyridina-1(4,5)-pyrazola-7(1,3)-cyclopentanacyclononaphane-5^6-yl)piperazin-1-yl)piperidin-1-yl)-3-methylphenoxy)piperidine-2,6-dione], for which, in experiment [1], the “Imax (%)” value is listed as 96.47% and the pIC50 was 8.16. In experiment [2], this molecule gave a DC50 of 3.04 nM and a Dmax of 93.3%. In experiment [3], this molecule showed a DC50 of 1.94 nM and a Dmax of 85.6%. In experiment [4], the “Imax (%)” value is given as 101.57% and the pIC50 was 8.99.

In the case of `COC[C@@H]1CN(c2ccc3c(c2)N2CC4CC[C@H](COc5c(c(C)nn5C)-c5cc(cc(C)n5)C(=O)/N=C/2N3)C4)CCN1C1CCN(c2cc(F)c([C@H]3CCC(=O)NC3=O)c(F)c2)CC1` [Example 80, (R)-3-(2,6-difluoro-4-(4-((S)-2-(methoxymethyl)-4-((7R,7^3S,E)-1^1,1^3,2^6-trimethyl-3-oxo-5^2,5^3-dihydro-1^1H,5^1H-9-oxa-4-aza-5(2,1)-benzo[d]imidazola-2(2,4)-pyridina-1(4,5)-pyrazola-7(1,3)-cyclopentanacyclononaphane-5^6-yl)piperazin-1-yl)piperidin-1-yl)phenyl)piperidine-2,6-dione], in experiment [1], the “Imax (%)” value is 91.7% and the pIC50 is 8.42. Besides, in experiment [2], it took 1.73 nM to reach half-maximal degradation (DC50) and the Dmax is 88.1%. Further, in experiment [3], half-maximal degradation (DC50) was put at 5.24 nM and the Dmax stood at 82.4%. For the same molecule, in experiment [4], the “Imax (%)” value is 99.9% and the pIC50 is 8.80.

For `Cc1cc2cc(n1)-c1c(C)nn(C)c1OC[C@H]1CC[C@H](C1)CN1/C(=N/C2=O)Nc2ccc(N3C[C@@H](C)N(C4CCN(c5cc(F)c([C@H]6CCC(=O)NC6=O)c(F)c5)CC4)C[C@@H]3C)cc21` [Example 200, (R)-3-(4-(4-((2R,5S)-2,5-dimethyl-4-((7^1R,7^3S,E)-1^1,1^3,2^6-trimethyl-3-oxo-5^2,5^3-dihydro-1^1H,5^1H-9-oxa-4-aza-5(2,1)-benzo[d]imidazola-2(2,4)-pyridina-1(4,5)-pyrazola-7(1,3)-cyclopentanacyclononaphane-5^6-yl)piperazin-1-yl)piperidin-1-yl)-2,6-difluorophenyl)piperidine-2,6-dione], in experiment [1], the “Imax (%)” value is 98.42% and the pIC50 is greater than 9.89. In experiment [2], the DC50 came out at 2.1 nM and the Dmax was 85.7%. Besides, in experiment [3], it took 1.87 nM to reach half-maximal degradation (DC50) and the Dmax turned out to be 94.6%. Further, in experiment [4], the “Imax (%)” value is recorded as 102.89% and the pIC50 is 8.75.

As to `Cc1nn(C)c2c1-c1cc(cc(Cl)n1)C(=O)/N=C1\Nc3ccc(N4CCN(C5CCN(c6cc(F)c([C@H]7CCC(=O)NC7=O)c(F)c6)CC5)CC4)cc3N1C[C@@H]1CC[C@H](CO2)C1` [Example 179, (R)-3-(4-(4-(4-((7^1R,7^3S,E)-2^6-chloro-1^1,1^3-dimethyl-3-oxo-5^2,5^3-dihydro-1^1H,5^1H-9-oxa-4-aza-5(2,1)-benzo[d]imidazola-2(2,4)-pyridina-1(4,5)-pyrazola-7(1,3)-cyclopentanacyclononaphane-5^6-yl)piperazin-1-yl)piperidin-1-yl)-2,6-difluorophenyl)piperidine-2,6-dione], in experiment [1], the “Imax (%)” value is recorded as 99.14% and the pIC50 was 7.84. Further, in experiment [2], the DC50 came to 5.38 nM and the Dmax worked out at 90.8%. In experiment [3], the DC50 came to 10.6 nM and the Dmax was found to be 89.6%. Also, in experiment [4], the “Imax (%)” value was 100.7% and the pIC50 is 8.55.

With `Cc1cc2cc(n1)-c1c(C)nn(C)c1OC[C@H]1CC[C@H](C1)CN1/C(=N/C2=O)Nc2ccc(N3CCN(C4CCN(c5cc(F)c([C@H]6CCC(=O)NC6=O)c(F)c5)CC4)C[C@H]3C)cc21` [Example 190, (R)-3-(2,6-difluoro-4-(4-((R)-3-methyl-4-((7^1R,7^3S,E)-1^1,1^3,2^6-trimethyl-3-oxo-5^2,5^3-dihydro-1^1H,5^1H-9-oxa-4-aza-5(2,1)-benzo[d]imidazola-2(2,4)-pyridina-1(4,5)-pyrazola-7(1,3)-cyclopentanacyclononaphane-5^6-yl)piperazin-1-yl)piperidin-1-yl)phenyl)piperidine-2,6-dione], the “Imax (%)” value in experiment [1] came out at 91.5%; in experiment [4], 100.67%. Also, the pIC50 is 9.24 in experiment [1] and 8.92 in experiment [4]. The DC50 in experiment [2] stood at 3.11 nM; in experiment [3] it was 1.69 nM. Besides, the Dmax in experiment [2] turned out to be 88.2%; in experiment [3], 94.9%.

For the molecule `COC[C@@H]1CN(c2ccc3c(c2)N2CC4CC[C@H](COc5c(c(C(F)(F)F)nn5C)-c5cc(cc(C)n5)C(=O)/N=C/2N3)C4)CCN1C1CCN(c2cc(F)c([C@H]3CCC(=O)NC3=O)c(F)c2)CC1` [Example 77, (R)-3-(4-(4-((S)-4-((7^1R,7^3S,E)-1^1,2^6-dimethyl-3-oxo-1^3-(trifluoromethyl)-5^2,5^3-dihydro-1^1H,5^1H-9-oxa-4-aza-5(2,1)-benzo[d]imidazola-2(2,4)-pyridina-1(4,5)-pyrazola-7(1,3)-cyclopentanacyclononaphane-5^6-yl)-2-(methoxymethyl)piperazin-1-yl)piperidin-1-yl)-2,6-difluorophenyl)piperidine-2,6-dione], in experiment [1], the “Imax (%)” value is 91.3% and the pIC50 was 7.96. Moreover, in experiment [2], the DC50 came to 3.4 nM and the Dmax came out at 89.5%. In experiment [3], this molecule gave a DC50 of 5.5 nM and a Dmax of 85.7%. In experiment [4], the “Imax (%)” value is given as 99.2% and the pIC50 was 8.02.

As to `Cc1cc2cc(n1)-c1cnn(C)c1OC[C@H]1CC[C@H](C1)CN1/C(=N/C2=O)Nc2ccc(N3CCN(C4CCN(c5ccc(OC6CCC(=O)NC6=O)cc5)CC4)CC3)cc21` (stereo partly drawn) [Example 57, 3-(4-(4-(4-((7^1R,7^3S,E)-1^1,2^6-dimethyl-3-oxo-5^2,5^3-dihydro-1^1H,5^1H-9-oxa-4-aza-5(2,1)-benzo[d]imidazola-2(2,4)-pyridina-1(4,5)-pyrazola-7(1,3)-cyclopentanacyclononaphane-5^6-yl)piperazin-1-yl)piperidin-1-yl)phenoxy)piperidine-2,6-dione], in experiment [1], the “Imax (%)” value is 101% and the pIC50 was 7.98. In experiment [2], this molecule yielded a DC50 of 3.84 nM and a Dmax of 82.6%. Besides, in experiment [3], half-maximal degradation (DC50) was put at 3.14 nM and the Dmax is 58.5%. For the same molecule, in experiment [4], the “Imax (%)” value was determined as 97.9% and the pIC50 is 8.92.

Regarding `Cc1cc2cc(n1)-c1cnn(C)c1OC[C@H]1CCC(C1)CN1/C(=N/C2=O)Nc2ccc(N3CCC(N4CCC(Nc5cc(F)c([C@H]6CCC(=O)NC6=O)c(F)c5)CC4)CC3)cc21` (single isomer, unassigned) [Example 116], in experiment [1], the “Imax (%)” value is 98.5% and the pIC50 is 8.10. In addition, in experiment [2], half-maximal degradation (DC50) was put at 1.25 nM and the Dmax was determined as 85.4%. Also, in experiment [3], the DC50 is 0.61 nM and the Dmax is 83.4%. In experiment [4], the “Imax (%)” value is given as 99.4% and the pIC50 is 9.10.
